Reference: patent US20250090699A1, “FAP TARGETING CYCLIC PEPTIDES AND CONJUGATES THEREOF” (Novartis AG, priority 2023, published 2025)
Where a name gives a salt, the structure may show the parent alone. Starred links: 1 amine or outer side, 2 acyl side, 3 side chain; linkers in the order of their positions; H or OH if unused. Positions of bridges follow the written chain, without caps; N, C: chain ends. Non-standard residues stand in square brackets, D forms with d. Residues, ends and D or L forms follow the SMILES beside them. Groups on a side chain read outwards from the residue. Chains are numbered I, II in the order given. *: point of attachment. F(4amPEG2NHDOTA-Lu) = lutetium complex of (S)-2,2',2''-(10-(1-(4-(2-amino-2-carboxyethyl)phenyl)-3,12-dioxo-5,8-dioxa-2,11-diazatridecan-13-yl)-1,4,7,10-tetraazacyclododecane-1,4,7-triyl)triacetic acid (Phe with 4-aminomethyl-PEG2-DOTA-Lu), O=C([O-])CN1CCN(CC(=O)[O-])CCN(CC(=O)NCCOCCOCC(=O)NCc2ccc(C[C@H](N[*:1])C(=O)[*:2])cc2)CCN(CC(=O)[O-])CC1.[Lu+3]; X1 = O=C(O)CN1CCN(CC(=O)O)CCN(CC(=O)NC(CC(=O)NCCOCCOCC(=O)[*:1])CC(=O)NCCOCCOCC(=O)[*:2])CCN(CC(=O)O)CC1; COpipzaa = 4-(carboxymethyl)piperazine-1-carbonyl, O=C(O)CN1CCN(C(=O)*)CC1; DOTA(Lu) = O=C1CN2CCN3CCN(CC(=O)*)CCN(CC2)CC(=O)[O][Lu]([O]1)[O]C(=O)C3; hS(Pr) = O-propyl-L-homoserine, CCCOCC[C@H](N[*:1])C(=O)[*:2]; DOTA = O=C(O)CN1CCN(CC(=O)O)CCN(CC(=O)*)CCN(CC(=O)O)CC1; Trp(7-F) = N[C@@H](Cc1c[nH]c2c(F)cccc12)C(=O)O; Phe(4-CH2NH2) = NCc1ccc(C[C@H](N)C(=O)O)cc1; Piperazinyl(4-CH2COOH) = O=C(O)CN1CCN(*)CC1; NMeF = CN[C@@H](Cc1ccccc1)C(=O)O; Aoc(2) = CCCCCC[C@H](N)C(=O)O; Ahp(2) = CCCCC[C@H](N)C(=O)O; AEEA = NCCOCCOCC(=O)O; CO = O=C([*:1])[*:2]

Assays:
mouse FAP [1] = molecular target: T1, mouse FAP (Mus musculus, UniProt P97321); assay: Surface plasmon resonance (SPR) for peptide affinity, mouse FAP; assay type: binding
T1 construct: biotinylated His, Avi tag, mouse FAP (26-761, FAP-M82Q5); His; Avi tag (biotinylated); purchased AcroBiosystems FAP-M82Q5
T1 sequence (P97321 26-761): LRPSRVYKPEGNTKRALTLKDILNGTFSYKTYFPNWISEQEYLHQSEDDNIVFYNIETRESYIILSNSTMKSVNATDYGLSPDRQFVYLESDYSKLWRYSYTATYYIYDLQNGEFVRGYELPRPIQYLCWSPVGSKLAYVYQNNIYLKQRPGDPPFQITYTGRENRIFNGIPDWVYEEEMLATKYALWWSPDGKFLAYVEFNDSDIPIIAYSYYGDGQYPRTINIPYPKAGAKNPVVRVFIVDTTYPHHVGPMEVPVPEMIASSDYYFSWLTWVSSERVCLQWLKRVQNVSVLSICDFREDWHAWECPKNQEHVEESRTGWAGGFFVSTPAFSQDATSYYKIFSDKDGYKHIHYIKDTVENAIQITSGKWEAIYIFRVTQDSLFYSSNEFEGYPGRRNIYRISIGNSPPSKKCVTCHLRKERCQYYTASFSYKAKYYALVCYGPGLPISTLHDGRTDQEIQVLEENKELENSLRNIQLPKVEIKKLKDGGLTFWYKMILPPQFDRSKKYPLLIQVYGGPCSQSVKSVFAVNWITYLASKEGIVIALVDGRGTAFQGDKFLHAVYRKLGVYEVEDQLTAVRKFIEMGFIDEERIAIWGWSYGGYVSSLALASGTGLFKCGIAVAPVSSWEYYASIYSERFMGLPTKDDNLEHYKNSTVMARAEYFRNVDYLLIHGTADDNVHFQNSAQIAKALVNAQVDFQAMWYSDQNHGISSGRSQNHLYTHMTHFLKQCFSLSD
Outline: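 KD values come from a 1:1 kinetic fit of single-cycle SPR data: 8 peptide concentrations, 25 °C, 30 μL/min, HEPES-buffered saline pH 7.6 with 2% DMSO. Targets were His/Avi-tagged human (26-760) or mouse (26-761) FAP, amine-coupled to CM5 or held on a CAPture chip.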

human FAP [2] = molecular target: T2, human FAP (Homo sapiens, UniProt Q12884); assay: Surface plasmon resonance (SPR) for peptide affinity, human FAP; assay type: binding; conditions: read-out: h. FAP, SPR, KD
T2 construct: the biotinylated His, Avi tag, human FAP (26-760, FAP-H82Q6); His; Avi tag (biotinylated); purchased AcroBiosystems FAP-H82Q6
T2 sequence (Q12884 26-760): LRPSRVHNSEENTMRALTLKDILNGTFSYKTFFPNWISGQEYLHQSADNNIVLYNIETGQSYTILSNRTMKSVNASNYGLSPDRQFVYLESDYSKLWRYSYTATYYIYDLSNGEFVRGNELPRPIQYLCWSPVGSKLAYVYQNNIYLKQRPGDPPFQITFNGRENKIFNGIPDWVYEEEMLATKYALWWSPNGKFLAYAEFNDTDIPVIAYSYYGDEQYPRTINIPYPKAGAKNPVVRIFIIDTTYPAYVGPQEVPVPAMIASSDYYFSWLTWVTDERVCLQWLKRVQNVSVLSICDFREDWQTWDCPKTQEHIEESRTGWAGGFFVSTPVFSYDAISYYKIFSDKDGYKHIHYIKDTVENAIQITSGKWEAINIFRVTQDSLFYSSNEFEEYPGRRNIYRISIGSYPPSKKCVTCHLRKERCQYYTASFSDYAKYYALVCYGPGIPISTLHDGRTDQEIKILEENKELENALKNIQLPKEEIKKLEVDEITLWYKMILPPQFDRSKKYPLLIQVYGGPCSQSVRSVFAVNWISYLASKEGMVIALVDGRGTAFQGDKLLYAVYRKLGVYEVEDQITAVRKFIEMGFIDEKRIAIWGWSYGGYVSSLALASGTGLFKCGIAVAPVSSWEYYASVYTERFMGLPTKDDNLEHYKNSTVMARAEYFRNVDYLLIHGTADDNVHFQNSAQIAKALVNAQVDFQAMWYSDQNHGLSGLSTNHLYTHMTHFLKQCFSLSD
Procedure: Peptide affinities (KD) were determined by SPR using a Biacore™ 8K device (Cytiva) towards the following proteins: biotinylated His, Avi tag, human FAP (26-760, FAP-H82Q6), biotinylated His, Avi tag, mouse FAP (26-761, FAP-M82Q5), His tag, human DPP4 (34-766, DP4-H82E3), all purchased from AcroBiosystems and His tag, mouse DPP4 (29-760, 954-SE) from R&D Systems. The FAP proteins and their homologous were diluted to a concentration of 2 μg/mL into acetate buffer pH 5.5, then immobilized onto a CM5 sensorchip (Cytiva, BR-1005-30) to reach a response around 2000 R U. The running buffer HBS-EP+pH 7.6 (20× from Teknova CAT. No: H8022) contained 10 mM HEPES pH 7.6, 150 mM NaCl, 3 mM EDTA, 0.05% Tween20 and 2% DMSO. Experiments were carried out at 25° C. using a flow rate of 30 μL/min. Compounds were tested in single cycle kinetic mode at 8 different concentrations. Curve fitting was performed using the Biacore™ 8K evaluation software. The sensorgrams were fitted by applying a 1:1 binding model to calculate kinetic rate constants and equilibrium dissociation constants (KD).
For this assay, the setup had the same conditions (flow rate, running buffer, peptide dilution) as described above for the CM5 method. The oligo CAP reagent obtained in the CAPture Kit (Ref. 28920234) was 1/5 diluted into running buffer and used with a contact time of 300 s at a flow rate of 2 μL/min. The human and mouse FAP constructs described above were used (from AcroBiosystems or produced in house). The FAP proteins were diluted to a concentration of 2 μg/mL into acetate pH 5.5, 0.05% Tween20 and used with a contact time of 600 s at a flow rate of 10 μL/min. The peptides were tested with an association time of 280 s followed by a dissociation time of 3000 s at a flow rate of 30 μL/min. The regeneration was done using the regeneration solution (8 M guanidine-HCl, 1 M NaOH) as obtained with a contact time of 270 s at a flow rate of 10 μL/min. […] The compounds marked with an asterisk were tested against human and mouse DDP4.

mouse FAP [3] = molecular target: T1, mouse FAP; assay: Enzymatic FAP competition assay (Z-Gly-Pro-AMC fluorescence), mouse FAP; assay type: biochemical; conditions: read-out: m. FAP, Enz., IC50
Outline: (§1)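 IC50 values come from curve fitting of duplicate % inhibition data on AMC fluorescence (ex 380, em 460 nm) after 4 h at 22-24° C with 50 μM Z-Gly-Pro-AMC. Beforehand, peptides up to 1 μM (14 levels) sat 24 h with 0.01 nM human (26-760) or mouse (26-761) tagged FAP in phosphate buffer pH 7.5, NaCl, Tween20, 1% DMSO.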

human FAP [4] = molecular target: T2, human FAP; assay: Enzymatic FAP competition assay (Z-Gly-Pro-AMC fluorescence), human FAP; assay type: biochemical; conditions: read-out: h. FAP, Enz., IC50
Outline: as §1

Kd (mouse FAP [1]) | Kd (human FAP [2]) | IC50 (mouse FAP [3]) | IC50 (human FAP [4]) | Molecule
0.64 nM | 0.41 nM | 1.1 nM | 0.43 nM | Lys(DOTA-Lu)-Gly-NMePhe-Tyr-Ahp-Trp-Gly-Tyr-Asp-D-Pro (cyclo(K(DOTA(Lu))G[NMeF]Y[Ahp(2)]WGYD[dP]); also: Lu complex) [Example C22]
0.011 nM | < 0.005 nM | 0.011 nM | 0.005 nM | CCCCC[C@@H]1NC(=O)[C@H](Cc2ccc(O)cc2)NC(=O)[C@H](Cc2ccccc2)N(C)C(=O)CNC(=O)CNC(=O)[C@H]2CCCN2C(=O)[C@H](CC(=O)O)NC(=O)[C@H](Cc2ccc(OC)cc2)NC(=O)CNC(=O)[C@H](Cc2c[nH]c3ccccc23)NC1=O [Example A13, Gly-Gly-NMePhe-Tyr-Ahp-Trp-Gly-F(4OMe)-Asp-D-Pro] (cyclo([Ahp(2)]WGY(Me)D[dP]GG[NMeF]Y))
< 0.018 nM | < 0.011 nM | 0.013 nM | 0.005 nM | CCCCCC[C@@H]1NC(=O)[C@H](Cc2ccc(CNC(=O)COCCOCCNC(=O)CN3CCN(CC(=O)O)CCN(CC(=O)O)CCN(CC(=O)O)CC3)cc2)NC(=O)[C@H](Cc2ccccc2)N(C)C(=O)CNC(=O)CNC(=O)[C@H]2CCCN2C(=O)[C@H](CC(=O)O)NC(=O)[C@H](CCCCNC(=O)N2CCN(CC(=O)O)CC2)NC(=O)CNC(=O)[C@H](Cc2c[nH]c3ccccc23)NC1=O [Example B1, Gly-Gly-NMePhe-F(4amPEG2NHDOTA)-Aoc-Trp-Gly-K(COpipzaa)-Asp-D-Pro] (cyclo(GG[NMeF][Phe(4-CH2NH2)]([AEEA-DOTA])[Aoc(2)]WGK([CO-Piperazinyl(4-CH2COOH)])D[dP]))
< 0.057 nM | < 0.03 nM | 0.134 nM | 0.039 nM | CCCCCC[C@@H]1NC(=O)[C@H](Cc2ccc(CNC(=O)COCCOCCNC(=O)CC(CC(=O)NCCOCCOCC(=O)NCc3ccc(C[C@@H]4NC(=O)[C@H](Cc5ccccc5)N(C)C(=O)CNC(=O)CNC(=O)[C@H]5CCCN5C(=O)[C@H](CC(=O)O)NC(=O)[C@H](CCCCNC(=O)N5CCN(CC(=O)O)CC5)NC(=O)CNC(=O)[C@H](Cc5c[nH]c6ccccc56)NC(=O)[C@H](CCCCCC)NC4=O)cc3)NC(=O)CN3CCN(CC(=O)O)CCN(CC(=O)O)CCN(CC(=O)O)CC3)cc2)NC(=O)[C@H](Cc2ccccc2)N(C)C(=O)CNC(=O)CNC(=O)[C@H]2CCCN2C(=O)[C@H](CC(=O)O)NC(=O)[C@H](CCCCNC(=O)N2CCN(CC(=O)O)CC2)NC(=O)CNC(=O)[C@H](Cc2c[nH]c3ccccc23)NC1=O [Example M1] (I: cyclo(GG[NMeF][Phe(4-CH2NH2)][Aoc(2)]WGK([CO-Piperazinyl(4-CH2COOH)])D[dP]) / II: cyclo(GG[NMeF][Phe(4-CH2NH2)][Aoc(2)]WGK([CO-Piperazinyl(4-CH2COOH)])D[dP]); linker I:4-II:4 via X1)
0.185 nM | 0.163 nM | 0.4 nM | 0.117 nM | CCCCC[C@@H]1NC(=O)[C@H](Cc2ccc(O)cc2)NC(=O)[C@H](Cc2ccccc2)N(C)C(=O)CNC(=O)[C@@H]2CCCN2C(=O)[C@H]2CCCN2C(=O)[C@H](CC(=O)O)NC(=O)[C@H](Cc2ccc(O)cc2)NC(=O)CNC(=O)[C@H](Cc2c[nH]c3ccccc23)NC1=O [Example A51, 2-((6S,9S,15S,18S,21S,24S,29aS,34aR)-15-((1H-indol-3-yl)methyl)-24-benzyl-9,21-bis(4-hydroxybenzyl)-25-methyl-5,8,11,14,17,20,23,26,29,34-decaoxo-18-pentyldotriacontahydro-1H,5H-dipyrrolo[1,2-a:1′,2′-b1][1,4,7,10,13,16,19,22,25,28]decaazacyclotriacontin-6-yl)acetic acid] (cyclo(G[NMeF]Y[Ahp(2)]WGYD[dP]P))
< 0.036 nM | < 0.008 nM | 0.023 nM | 0.009 nM | Gly-Gly-NMePhe-F(4amPEG2NHDOTA-Lu)-hS(Pr)-Trp-Gly-K(COpipzaa)-Asp-D-Pro (cyclo(GG[NMeF][F(4amPEG2NHDOTA-Lu)][hS(Pr)]WGK(COpipzaa)D[dP]); also: Lu complex) [Example C2]
0.45 nM | – | 0.48 nM | 0.111 nM | CCCCC[C@@H]1NC(=O)[C@H](Cc2ccc(O)cc2)NC(=O)[C@H](Cc2ccccc2)N(C)C(=O)CNC(=O)[C@H](CCCCN)NC(=O)[C@H]2CCCN2C(=O)[C@H](CC(=O)O)NC(=O)[C@H](Cc2ccc(O)cc2)NC(=O)CNC(=O)[C@H](Cc2c[nH]c3c(F)cccc23)NC1=O [Example A23, Lys-Gly-NMePhe-Tyr-Ahp-W(7F)-Gly-Tyr-Asp-D-Pro, TFA salt] (cyclo([Ahp(2)][Trp(7-F)]GYD[dP]KG[NMeF]Y))
